Test results: patent US20090298878A1, “OXIME COMPOUNDS AND THE USE THEREOF” (priority 2006, published 2009)
Where a name gives a salt, the structure may show the parent alone.

These compounds were tested against T1, L-type calcium channel (LTCC) subunits (α1c, α2δ, and β1) (Rattus norvegicus, UniProt P22002) (assay: FLIPR calcium mobilization assay for L-type calcium channel (HEK293 cells expressing recombinant rat LTCC subunits)). Settings: calcium mobilization in vitro assay, L-type calcium channel blockers.
T1 construct: expressed in transfected cells; pcDNA6.2DEST for α1c, pcDNA3.2DEST for β1, pcDNA3.1-Zeo for α2δ
Format: cell-based
Protocol: Recombinant human embryonal kidney cells (HEK293, ATCC) stably transfected with either N-type calcium channel (NTCC) subunits (α1b, α2δ, and β3) or L-type calcium channel (LTCC) subunits (α1c, α2δ, and β1) were routinely cultured in growth medium consisting of Dulbecco's Modified Eagles Medium containing 10% FBS, 100 U/mL penicillin, 100 μg/mL streptomycin, 4 mM L-glutamine, 500 μg/mL geneticin (G418), 20 μg/mL Blasticidin S (InVivogen, San Diego, Calif.) and 500 μg/mL zeocin (InVivogen).
FLIPR Calcium Mobilization Assay for L-type Calcium Channel. One day prior to performing this assay, HEK293 cells stably expressing recombinant rat L-type calcium channel (LTCC) subunits (α1c, α2δ, and β1) were trypsinized, then seeded on poly-D-lysine-coated 96-well clear-bottom black plates (Becton Dickinson, Franklin Lakes, N.J.) at 75,000 cells/well. On the day of the assay, the plates were washed with LTCC wash buffer (127 mM NaCl, 2 mM MgCl2, 700 μM NaH2PO4, […], 5 mM NaHCO3, 8 mM HEPES, 10 mM glucose, pH 7.4), then loaded with 0.1 mL of LTCC wash buffer containing Fluo-4 (3 μM final concentration, Molecular Probes, Eugene, Oreg.). After 1 hour, the cells were washed with 0.1 mL LTCC wash buffer and resuspended in 0.05 mL LTCC assay buffer (same composition as LTCC wash buffer). Plates were then transferred to a FLIPR^96 for assay. The FLIPR measured basal Fluo-4 fluorescence for 15 seconds, then added 0.05 mL of each compound tested diluted in LTCC assay buffer at final concentrations ranging from about 846 pM to about 17 μM. Fluo-4 fluorescence was then measured for 5 minutes. 0.1 mL KCl agonist dissolved in LTCC assay buffer was then added to the cells to produce a final concentration of 90 mM KCl, and fluorescence was measured for another 45 seconds. Data were collected over the entire time course and analyzed using Excel, Graph Pad Prism, or an in-house regression analysis software.
Cloning of N- and L-type calcium channel subunit open reading frame cDNAs. Five cDNAs encoding subunits of the rat N- or L-type calcium channels were cloned by PCR amplification in order to reconstitute functional channels in a heterologous system. These were the alpha1b (α1b), beta1 (β1), beta3 (β3), alpha2delta (α2δ), and alpha1c (α1c) subunit cDNAs. The alpha1b subunit cDNA has been described by Dubel et al. in Proc. Natl. Acad. Sci. U.S.A 89: 5058-5062 (1992). The beta1 subunit cDNA has been described by Pragnell et al. in FEBS Lett. 291: 253-258 (1991). The beta3 subunit cDNA has been described by Castellano et al. in J. Biol. Chem. 268: 12359-12366 (1993). The alpha2delta subunit cDNA has been described by Kim et al. in Proc. Natl. Acad. Sci. U.S.A. 89: 3251-3255 (1992). The alpha1c subunit cDNA has been described by Koch et al. in J. Biol. Chem. 265: 17786-17791 (1990).
The 6.5 kb cDNA encoding the L-type calcium channel α1c subunit was cloned by PCR amplification from rat heart cDNA using primers 11 (SEQ ID NO: 11, TABLE 1) and 12 (SEQ ID NO:12, TABLE 1). The PCR fragment was subcloned and fully sequenced on both strands to confirm its identity. A clone matching consensus reference sequence M59786 and rat genomic DNA sequences was recombined into the mammalian expression vector pcDNA6.2DEST. Sequences around the recombinogenic region were sequenced to confirm accurate recombination into the expression vector.
L-type Recombinant Cell Line Development. L-type calcium channel expressing HEK-293 cells were created in two stages. Stage 1 was created as follows. The rat α1c, and β1 cDNA expression constructs (2.5 μg each) were co-transfected into human embryonic kidney (HEK-293) cells by Lipofectamine Plus reagent (Invitrogen), as per manufacturer's instructions. 24 hours later, cells were split in limiting dilution into multiple 96-well plates in selection media containing 20 μg/mL blasticidin and 500 μg/mL geneticin, and incubated for 3 weeks at 37° C., 5% CO2, 95% humidity. […]

T1 sequence (P22002 whole entry): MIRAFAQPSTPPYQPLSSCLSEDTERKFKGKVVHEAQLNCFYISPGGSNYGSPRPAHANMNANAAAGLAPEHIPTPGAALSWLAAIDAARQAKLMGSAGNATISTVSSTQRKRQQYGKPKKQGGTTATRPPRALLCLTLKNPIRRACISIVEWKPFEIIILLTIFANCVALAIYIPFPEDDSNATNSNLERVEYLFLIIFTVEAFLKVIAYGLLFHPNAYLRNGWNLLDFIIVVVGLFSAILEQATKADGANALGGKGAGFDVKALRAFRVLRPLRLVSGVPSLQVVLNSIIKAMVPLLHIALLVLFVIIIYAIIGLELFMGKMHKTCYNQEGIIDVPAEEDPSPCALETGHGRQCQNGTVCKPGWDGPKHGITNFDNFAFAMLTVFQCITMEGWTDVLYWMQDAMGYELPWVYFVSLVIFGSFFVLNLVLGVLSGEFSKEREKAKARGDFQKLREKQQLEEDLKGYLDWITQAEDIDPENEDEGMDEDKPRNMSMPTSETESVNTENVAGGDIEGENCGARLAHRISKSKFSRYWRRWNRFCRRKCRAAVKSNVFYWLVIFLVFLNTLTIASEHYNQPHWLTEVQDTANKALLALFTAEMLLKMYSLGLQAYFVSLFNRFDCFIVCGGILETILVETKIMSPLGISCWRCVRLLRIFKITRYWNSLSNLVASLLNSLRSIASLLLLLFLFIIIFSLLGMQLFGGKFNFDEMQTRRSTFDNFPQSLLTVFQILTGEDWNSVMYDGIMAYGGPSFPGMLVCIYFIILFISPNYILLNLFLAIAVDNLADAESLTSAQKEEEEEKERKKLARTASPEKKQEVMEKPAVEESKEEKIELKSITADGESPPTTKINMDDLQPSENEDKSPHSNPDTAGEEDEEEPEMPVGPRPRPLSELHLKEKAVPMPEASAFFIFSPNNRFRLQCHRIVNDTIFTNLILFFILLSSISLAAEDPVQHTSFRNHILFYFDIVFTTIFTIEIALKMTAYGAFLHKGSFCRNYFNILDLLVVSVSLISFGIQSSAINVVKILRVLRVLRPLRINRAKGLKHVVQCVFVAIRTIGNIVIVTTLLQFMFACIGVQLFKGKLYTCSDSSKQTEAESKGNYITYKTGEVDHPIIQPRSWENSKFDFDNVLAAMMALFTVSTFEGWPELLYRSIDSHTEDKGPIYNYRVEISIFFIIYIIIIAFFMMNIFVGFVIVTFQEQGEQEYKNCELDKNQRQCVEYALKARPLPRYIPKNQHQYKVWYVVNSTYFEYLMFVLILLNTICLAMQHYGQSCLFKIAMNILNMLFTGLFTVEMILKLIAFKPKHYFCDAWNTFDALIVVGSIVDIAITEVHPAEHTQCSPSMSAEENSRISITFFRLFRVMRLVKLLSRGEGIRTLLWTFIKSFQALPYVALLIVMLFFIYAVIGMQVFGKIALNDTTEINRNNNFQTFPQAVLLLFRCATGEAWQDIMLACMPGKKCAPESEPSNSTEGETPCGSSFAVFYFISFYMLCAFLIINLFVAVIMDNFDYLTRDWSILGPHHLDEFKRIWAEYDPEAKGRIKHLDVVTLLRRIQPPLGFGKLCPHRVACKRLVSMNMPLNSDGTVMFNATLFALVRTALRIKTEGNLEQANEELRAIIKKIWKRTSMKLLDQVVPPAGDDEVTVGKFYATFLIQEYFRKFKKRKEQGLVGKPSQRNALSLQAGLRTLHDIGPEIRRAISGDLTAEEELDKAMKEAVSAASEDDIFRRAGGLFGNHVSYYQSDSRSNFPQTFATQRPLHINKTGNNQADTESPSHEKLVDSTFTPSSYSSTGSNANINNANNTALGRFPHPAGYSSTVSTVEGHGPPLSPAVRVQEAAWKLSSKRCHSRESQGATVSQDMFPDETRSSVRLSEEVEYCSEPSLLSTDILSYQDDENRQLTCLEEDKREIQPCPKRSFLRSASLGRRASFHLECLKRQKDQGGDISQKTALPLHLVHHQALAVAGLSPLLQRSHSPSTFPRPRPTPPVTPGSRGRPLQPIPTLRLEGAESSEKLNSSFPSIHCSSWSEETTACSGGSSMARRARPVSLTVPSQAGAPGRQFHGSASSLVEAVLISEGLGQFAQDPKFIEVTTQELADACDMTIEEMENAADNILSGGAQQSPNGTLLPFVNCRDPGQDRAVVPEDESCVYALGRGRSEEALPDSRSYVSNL

Row | IC50 | Compound
1 | 15.2 µM | CN[C@@H](CC(C)C)C(=O)N1CCC(=NOCc2ccc(Cl)cc2)CC1 [Example 4, 1-((S)-4-Methyl-2-methylaminopentanoyl)piperidin-4-one O-(4-chlorobenzyl)oxime hydrochloride]
2 | > 20 µM | O=C(CCC(c1ccc(F)cc1)c1ccc(F)cc1)N1CCC(=NOCc2ccc(C(F)(F)F)cc2)CC1 [Example 30, 1-[4,4-Bis-(4-fluorophenyl)butyryl]piperidin-4-one O-(4-trifluoromethylbenzyl)oxime]
3 | > 20 µM | CCCCc1ccc(S(=O)(=O)N2CCC(=NOCc3cccc(C(F)(F)F)c3)CC2)cc1 [Example 50, 1-(4-Butyl-benzenesulfonyl)piperidin-4-one O-(3-trifluoromethylbenzyl)oxime]
4 | > 20 µM | O=S(=O)(c1ccc(OC(F)(F)F)cc1)N1CCC(=NOCc2nc3cc(Cl)cnc3[nH]2)CC1 [Example 308, 1-(4-(Trifluoromethoxy)phenylsulfonyl)piperidin-4-one O-(6-chloro-3H-imidazo[4,5-b]pyridin-2-yl)methyl oxime]
5 | 7.2 µM | CC(C)C[C@H](N)CC(=O)N1CCC(=NOCc2cccc(C(F)(F)F)c2)CC1 [Example 24, 1-((S)-3-Amino-5-methylhexanoyl)piperidin-4-one O-(3-trifluoromethylbenzyl)oxime oxalate]

These compounds were tested against T2, N-type calcium channel (NTCC) (Homo sapiens, UniProt Q00975) (assay: FLIPR calcium mobilization assay for N-type calcium channel (differentiated IMR32 cells)). Settings: about 1.0 μM or less; calcium mobilization and/or electrophysiological assay.
T2 construct: host or cells: IMR32 cells differentiated with dibutyryl cAMP and bromodeoxyuridine
Format: cell-based
Method in brief: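 Human IMR32 cells differentiated 8 days (1 mM dibutyryl cAMP, 2.5 μM BrdU), pre-stimulated 1 h with 90 mM KCl plus compound (~846 pM–17 μM) and 5 μM nitrendipine, Fluo-4 loaded. FLIPR read basal fluorescence 315 s, then 90 mM KCl agonist added and fluorescence recorded 45 s; non-linear regression.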

T2 sequence (Q00975 whole entry): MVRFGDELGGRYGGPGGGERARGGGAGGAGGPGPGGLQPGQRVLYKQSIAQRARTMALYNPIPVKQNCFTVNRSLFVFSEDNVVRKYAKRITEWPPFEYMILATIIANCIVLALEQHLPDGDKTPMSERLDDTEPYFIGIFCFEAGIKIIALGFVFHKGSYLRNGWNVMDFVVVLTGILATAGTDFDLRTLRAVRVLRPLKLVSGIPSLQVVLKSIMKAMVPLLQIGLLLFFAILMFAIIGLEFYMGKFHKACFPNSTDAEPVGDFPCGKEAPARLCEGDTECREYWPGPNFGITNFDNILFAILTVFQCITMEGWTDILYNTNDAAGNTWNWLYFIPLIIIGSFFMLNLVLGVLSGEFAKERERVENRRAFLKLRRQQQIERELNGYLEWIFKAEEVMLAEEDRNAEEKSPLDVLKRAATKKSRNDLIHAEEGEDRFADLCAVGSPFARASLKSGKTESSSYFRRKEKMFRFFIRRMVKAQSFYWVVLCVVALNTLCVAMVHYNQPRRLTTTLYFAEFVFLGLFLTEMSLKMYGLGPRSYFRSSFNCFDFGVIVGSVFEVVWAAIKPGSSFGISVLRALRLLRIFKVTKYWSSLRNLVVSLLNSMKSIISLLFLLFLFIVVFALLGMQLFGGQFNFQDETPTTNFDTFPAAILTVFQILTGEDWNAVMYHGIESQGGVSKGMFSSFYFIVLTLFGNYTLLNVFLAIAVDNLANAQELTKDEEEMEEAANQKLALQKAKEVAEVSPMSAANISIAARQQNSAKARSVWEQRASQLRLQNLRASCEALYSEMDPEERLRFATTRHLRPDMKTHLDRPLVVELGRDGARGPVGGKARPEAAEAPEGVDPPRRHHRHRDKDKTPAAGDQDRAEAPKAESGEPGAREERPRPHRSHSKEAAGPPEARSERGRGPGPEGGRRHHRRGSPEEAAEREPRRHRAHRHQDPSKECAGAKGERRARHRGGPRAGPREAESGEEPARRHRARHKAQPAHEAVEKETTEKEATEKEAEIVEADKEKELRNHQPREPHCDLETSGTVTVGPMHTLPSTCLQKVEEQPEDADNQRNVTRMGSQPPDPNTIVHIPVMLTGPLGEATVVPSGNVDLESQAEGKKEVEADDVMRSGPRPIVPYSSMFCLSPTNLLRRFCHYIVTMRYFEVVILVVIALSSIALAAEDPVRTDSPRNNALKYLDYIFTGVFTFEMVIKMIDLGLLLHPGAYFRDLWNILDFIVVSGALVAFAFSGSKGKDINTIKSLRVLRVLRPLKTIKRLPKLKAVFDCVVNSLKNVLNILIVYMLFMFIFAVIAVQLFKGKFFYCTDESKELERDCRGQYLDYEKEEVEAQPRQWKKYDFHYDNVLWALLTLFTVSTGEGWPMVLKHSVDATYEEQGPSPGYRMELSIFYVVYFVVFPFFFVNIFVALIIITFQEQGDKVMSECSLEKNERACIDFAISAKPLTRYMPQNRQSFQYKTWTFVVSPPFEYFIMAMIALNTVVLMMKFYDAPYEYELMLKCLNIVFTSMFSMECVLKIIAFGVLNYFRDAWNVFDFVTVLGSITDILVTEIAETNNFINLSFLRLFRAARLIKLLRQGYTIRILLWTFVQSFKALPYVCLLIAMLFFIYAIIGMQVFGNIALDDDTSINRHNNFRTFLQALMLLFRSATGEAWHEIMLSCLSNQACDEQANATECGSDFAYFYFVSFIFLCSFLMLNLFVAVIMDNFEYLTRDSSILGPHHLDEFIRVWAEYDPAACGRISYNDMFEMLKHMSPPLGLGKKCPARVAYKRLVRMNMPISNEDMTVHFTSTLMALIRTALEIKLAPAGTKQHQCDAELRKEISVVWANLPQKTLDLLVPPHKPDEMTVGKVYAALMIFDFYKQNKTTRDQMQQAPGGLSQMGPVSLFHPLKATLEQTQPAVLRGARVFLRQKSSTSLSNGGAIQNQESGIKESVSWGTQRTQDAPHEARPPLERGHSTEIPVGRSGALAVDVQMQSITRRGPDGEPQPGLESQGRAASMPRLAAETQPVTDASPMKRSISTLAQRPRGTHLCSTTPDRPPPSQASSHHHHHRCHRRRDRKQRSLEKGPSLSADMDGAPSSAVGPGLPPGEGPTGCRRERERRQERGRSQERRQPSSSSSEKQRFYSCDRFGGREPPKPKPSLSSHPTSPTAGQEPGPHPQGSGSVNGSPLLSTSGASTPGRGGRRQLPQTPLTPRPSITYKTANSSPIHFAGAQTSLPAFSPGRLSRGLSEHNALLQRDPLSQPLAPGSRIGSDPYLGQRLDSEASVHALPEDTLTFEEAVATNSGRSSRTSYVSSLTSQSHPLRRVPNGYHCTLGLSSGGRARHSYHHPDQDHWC

Row | Compound | IC50
6 | CC(C)CCON=C1CCN(S(=O)(=O)c2cccc(C(F)(F)F)c2)CC1 [Example 366, 1-(3-(Trifluoromethyl)phenylsulfonyl)piperidin-4-one O-isopentyl oxime] | ≤ 1 µM
7 | CCCCc1ccc(S(=O)(=O)N2CCC(=NOCc3ccnc(Cl)c3)CC2)cc1 [Example 69, 1-(4-Butylbenzenesulfonyl)piperidin-4-one O-(2-chloropyridin-4-ylmethyl)oxime] | ≤ 1 µM
8 | CCCCc1ccc(S(=O)(=O)N2CCC(=NOCc3cccc(OC(F)(F)F)c3)CC2)cc1 [Example 79, 1-(4-Butylbenzenesulfonyl)piperidin-4-one O-(3-trifluoromethoxybenzyl)oxime] | ≤ 1 µM
9 | CCOc1ccc(S(=O)(=O)N2CCC(=NOCc3cccc(C(F)(F)F)c3)CC2)cc1 [Example 91, 1-(4-Ethoxybenzenesulfonyl)piperidin-4-one O-(3-trifluoromethylbenzyl)oxime] | ≤ 1 µM
10 | N#Cc1cccc(C(ON=C2CCN(S(=O)(=O)c3ccc(NC4CC4)nc3)CC2)C2CC2)c1 (stereo not shown) [Example 274, 3-(Cyclopropyl(1-(6-(cyclopropylamino)pyridin-3-ylsulfonyl)piperidin-4-ylideneaminooxy)methyl)benzonitrile] | ≤ 1 µM
11 | CC(C)Oc1ccc(S(=O)(=O)N2CCC(=NOCc3cccc(C(F)(F)F)c3)CC2)cc1 [Example 93, 1-(4-Isopropoxybenzenesulfonyl)piperidin-4-one O-(3-trifluoromethylbenzyl)oxime] | ≤ 1 µM

Further lines, results first:

Row | IC50 | Compound
12 | ≤ 1 µM | O=S(=O)(c1cccc(C(F)(F)F)c1)N1CCC(=NOC2CCCCC2)CC1 [Example 309, 1-(3-(Trifluoromethyl)phenylsulfonyl)piperidin-4-one O-cyclohexyl oxime]
13 | ≤ 1 µM | O=S(=O)(c1cccs1)N1CCC(=NOC(c2ccc(F)cc2)c2ccc(F)cc2)CC1 [Example 252, 1-(Thiophen-2-ylsulfonyl)piperidin-4-one O-bis(4-fluorophenyl)methyl oxime]
14 | ≤ 1 µM | COc1ncccc1CON=C1CCN(S(=O)(=O)c2ccc(OC(F)(F)F)cc2)CC1 [Example 111, 1-(4-Trifluoromethoxybenzenesulfonyl)piperidin-4-one O-(2-methoxypyridin-3-ylmethyl)oxime]
15 | ≤ 1 µM | N#Cc1cccc(CON=C2CCN(S(=O)(=O)c3ccc(OC(F)F)cc3)CC2)c1 [Example 197, 3-((1-(4-(Difluoromethoxy)phenylsulfonyl)piperidin-4-ylideneaminooxy)methyl)benzonitrile]
16 | ≤ 1 µM | CCCCc1ccc(S(=O)(=O)N2CCC(=NOC(c3ccc(F)cc3)c3ccc(F)cc3)CC2)cc1 [Example 231, 1-(4-Butylphenylsulfonyl)piperidin-4-one O-bis(4-fluorophenyl)methyl oxime]
17 | ≤ 1 µM | N#Cc1cccc(CON=C2CCN(S(=O)(=O)c3ccc(OC(F)(F)F)cc3)CC2)n1 [Example 173, 6-((1-(4-(Trifluoromethoxy)phenylsulfonyl)piperidin-4-ylideneaminooxy)methyl)picolinonitrile]
18 | ≤ 1 µM | O=[N+]([O-])c1ccc(CON=C2CCN(S(=O)(=O)c3ccc(OC(F)(F)F)cc3)CC2)cc1 [Example 134, 1-(4-Trifluoromethoxybenzenesulfonyl)piperidin-4-one O-(4-nitrobenzyl)oxime]
19 | ≤ 1 µM | COc1ccc(S(=O)(=O)N2CCC(=NOC(c3ccc(F)cc3)c3ccc(F)cc3)CC2)cc1OC [Example 268, 1-(3,4-Dimethoxyphenylsulfonyl)piperidin-4-one O-bis(4-fluorophenyl)methyl oxime]
20 | ≤ 1 µM | N#Cc1ccc(S(=O)(=O)N2CCC(=NOCc3cccc(C#N)c3)CC2)cc1 [Example 199]
21 | ≤ 1 µM | O=S(=O)(c1ccccc1)N1CCC(=NOCc2cccc(C(F)(F)F)c2)CC1 [Example 51, 1-Benzenesulfonylpiperidin-4-one O-(3-trifluoromethylbenzyl)oxime]
22 | ≤ 1 µM | O=C(CCC(c1ccc(F)cc1)c1ccc(F)cc1)N1CCC(=NOCc2cccc(C(F)(F)F)c2)CC1 [Example 29, 1-[4,4-Bis-(4-fluorophenyl)butyryl]piperidin-4-one O-(3-trifluoromethylbenzyl)oxime]
23 | ≤ 1 µM | N#Cc1ccc(-n2cc(CON=C3CCN(S(=O)(=O)c4ccc(OC(F)(F)F)cc4)CC3)ccc2=O)cc1 [Example 315, 4-(2-oxo-5-((1-(4-(trifluoromethoxy)phenylsulfonyl)piperidin-4-ylideneaminooxy)methyl)pyridin-1(2H)-yl)benzonitrile]
24 | ≤ 1 µM | COC(=O)c1cccc(S(=O)(=O)N2CCC(=NOC(c3ccc(F)cc3)c3ccc(F)cc3)CC2)c1 [Example 286, Methyl 3-(4-(bis(4-fluorophenyl)methoxyimino)piperidin-1-ylsulfonyl)benzoate]
25 | ≤ 1 µM | O=S(=O)(c1ccc(F)c(F)c1)N1CCC(=NOC(c2ccc(F)cc2)c2ccc(F)cc2)CC1 [Example 243, 1-(3,4-Difluorophenylsulfonyl)piperidin-4-one O-bis(4-fluorophenyl)methyl oxime]
26 | ≤ 1 µM | N#Cc1cccc(S(=O)(=O)N2CCC(=NOCc3cccc(C(F)(F)F)c3)CC2)c1 [Example 284, 3-(4-(3-(Trifluoromethyl)benzyloxyimino)piperidin-1-ylsulfonyl)benzonitrile]

Same assay, conditions: calcium mobilization in vitro assay, N-type calcium channel blockers

Row | IC50 | Compound
27 | 0.86 µM | CN[C@@H](CC(C)C)C(=O)N1CCC(=NOCc2ccc(Cl)cc2)CC1 [Example 4, 1-((S)-4-Methyl-2-methylaminopentanoyl)piperidin-4-one O-(4-chlorobenzyl)oxime hydrochloride]
28 | 0.33 µM | O=C(CCC(c1ccc(F)cc1)c1ccc(F)cc1)N1CCC(=NOCc2ccc(C(F)(F)F)cc2)CC1 [Example 30, 1-[4,4-Bis-(4-fluorophenyl)butyryl]piperidin-4-one O-(4-trifluoromethylbenzyl)oxime]
29 | 0.43 µM | CCCCc1ccc(S(=O)(=O)N2CCC(=NOCc3cccc(C(F)(F)F)c3)CC2)cc1 [Example 50, 1-(4-Butyl-benzenesulfonyl)piperidin-4-one O-(3-trifluoromethylbenzyl)oxime]
30 | 0.36 µM | O=S(=O)(c1ccc(OC(F)(F)F)cc1)N1CCC(=NOCc2nc3cc(Cl)cnc3[nH]2)CC1 [Example 308, 1-(4-(Trifluoromethoxy)phenylsulfonyl)piperidin-4-one O-(6-chloro-3H-imidazo[4,5-b]pyridin-2-yl)methyl oxime]
31 | 0.99 µM | CC(C)C[C@H](N)CC(=O)N1CCC(=NOCc2cccc(C(F)(F)F)c2)CC1 [Example 24, 1-((S)-3-Amino-5-methylhexanoyl)piperidin-4-one O-(3-trifluoromethylbenzyl)oxime oxalate]
